One data set has as its system Cyperus iria. Description: Preemergence weed control under flooded paddy conditions, CYPIR (Rice Flatsedge). On herbicidal effect rating, CYPIR: meaning of each grade not given here. The following applies: flooded paddy, rated three to four weeks after treatment; for herbicidal effect rating, CYPIR: preemergence weeds; for CYPIR herbicidal effect rating: preemergence. It counts as in vivo.
In data set [1] the test system is Echinochloa oryzoides (Ard.) Fritsch. The experiment in a line: Preemergence weed control under flooded paddy conditions, ECHORC (Watergrass (Calif.)). On herbicidal effect rating, ECHORC: meaning of each grade not given here. Type of data set: in vivo. The following applies: flooded paddy, rated three to four weeks after treatment.
The subject of data set [2] is Oryza sativa, (L.) Tebonnet. Description: Rice tolerance to post-transplant applications under flooded paddy conditions (Example 187), ORYSAT (Rice, Tebonnet). The settings on record: rated three to four weeks after treatment.
Another data set deals with Sagittaria pygmaea, L. The experiment in a line: Preemergence weed control under flooded paddy conditions, SAGPY (Arrowhead (Pygmaea)). On herbicidal effect rating, SAGPY: meaning of each grade not given here. It counts as in vivo. The following applies: flooded paddy, rated three to four weeks after treatment; for herbicidal effect rating, SAGPY: preemergence weeds; for SAGPY herbicidal effect rating: preemergence.
The test system of data set [3] is Monochoria vaginalis, Presl. Description: Preemergence weed control under flooded paddy conditions, MOOVA (Monochoria). On herbicidal effect rating, MOOVA: meaning of each grade not given here. It counts as in vivo. The settings on record: flooded paddy, rated three to four weeks after treatment; for herbicidal effect rating, MOOVA: preemergence weeds; for MOOVA herbicidal effect rating: preemergence.
[4] abbreviates: Rate 0.0320 kg/ha, preemergence weeds.
The mark [5] stands for this setting: Rate 0.0620 kg/ha, preemergence weeds.
[6] abbreviates: Rate 0.1250 kg/ha, preemergence weeds.
The mark [7] stands for this setting: Rate 0.2500 kg/ha, preemergence weeds.
Setting [8] is: Rate 0.0320 kg/ha, preemergence.
Setting [9] is: Rate 0.0620 kg/ha, preemergence.
Where [10] appears, read: Rate 0.1250 kg/ha, preemergence.
[11] abbreviates: Rate 0.2500 kg/ha, preemergence.

As to `Cn1c(C(F)(F)F)cc(=O)n(-c2ccc3snc(C(Cl)Br)c3c2)c1=O` (centres unmarked) [Example 300, 2,4(1H,3H)-Pyrimidinedione, 3-[3-(bromochloromethyl)-1,2-benzisothiazol-5-yl]-1-methyl-6-(trifluoromethyl)-], the “herbicidal effect rating, CYPIR” value with Cyperus iria (Rate 0.0320 kg/ha) was found to be 3.0; in the data set on Cyperus iria (Rate 0.0620 kg/ha), 6.0; in the data set on Cyperus iria (Rate 0.1250 kg/ha), 9.0; in the data set with Cyperus iria (Rate 0.2500 kg/ha), 9.0. For the same molecule, the “herbicidal effect rating, ECHORC” value in data set [1] (setting [4]) was 3.0; in data set [1] (setting [5]), 6.0; in data set [1] (setting [6]), 7.0; in data set [1] (setting [7]), 9.0. In addition, the “herbicidal effect rating ORYSAT” value turned out to be 2.0 in data set [2] (Rate 0.0320 kg/ha), 4.0 in data set [2] (Rate 0.0620 kg/ha), 4.0 in data set [2] (Rate 0.1250 kg/ha) and 5.0 in data set [2] (Rate 0.2500 kg/ha). For the same molecule, the “herbicidal effect rating, SAGPY” value with Sagittaria pygmaea, L. (Rate 0.0320 kg/ha) was determined as 2.0; in the data set on Sagittaria pygmaea, L. (Rate 0.0620 kg/ha), 5.0; with Sagittaria pygmaea, L. (Rate 0.1250 kg/ha) it was 6.0; with Sagittaria pygmaea, L. (Rate 0.2500 kg/ha), 7.0. Besides, the “herbicidal effect rating, MOOVA” value in data set [3] (Rate 0.0320 kg/ha), in data set [3] (Rate 0.0620 kg/ha), in data set [3] (Rate 0.1250 kg/ha) and in data set [3] (Rate 0.2500 kg/ha) was 9.0 throughout.

Take `Cn1c(C(F)(F)F)cc(=O)n(-c2ccc3snc(CSCC(=O)NS(C)(=O)=O)c3c2)c1=O` [Example 297, Acetamide, 2-{{{5-[3,6-dihydro-3-methyl-2,6-dioxo-4-(trifluoromethyl)-1(2H)-pyrimidinyl]-1,2-benzisothiazol-3-yl}methyl}thio}-N-(methylsulfonyl)-]: the “herbicidal effect rating, CYPIR” value with Cyperus iria (Rate 0.0320 kg/ha) is on record as 4.0; in the data set on Cyperus iria (Rate 0.0620 kg/ha), 5.0; in the data set on Cyperus iria (Rate 0.1250 kg/ha), 7.0; in the data set on Cyperus iria (Rate 0.2500 kg/ha) it was 9.0. Further, the “herbicidal effect rating, ECHORC” value worked out at 0.0 in data set [1] (setting [4]), 0.0 in data set [1] (setting [5]), 3.0 in data set [1] (setting [6]) and 4.0 in data set [1] (setting [7]). The “herbicidal effect rating ORYSAT” value is recorded as 0.0 in data set [2] (Rate 0.0320 kg/ha), 0.0 in data set [2] (Rate 0.0620 kg/ha), 0.0 in data set [2] (Rate 0.1250 kg/ha) and 2.0 in data set [2] (Rate 0.2500 kg/ha). Further, the “herbicidal effect rating, SAGPY” value in the data set on Sagittaria pygmaea, L. (Rate 0.0320 kg/ha) stood at 0.0; in the data set on Sagittaria pygmaea, L. (Rate 0.0620 kg/ha), 0.0; in the data set on Sagittaria pygmaea, L. (Rate 0.1250 kg/ha) it was 3.0; in the data set with Sagittaria pygmaea, L. (Rate 0.2500 kg/ha), 9.0. Further, the “herbicidal effect rating, MOOVA” value in data set [3] (Rate 0.0320 kg/ha), in data set [3] (Rate 0.0620 kg/ha), in data set [3] (Rate 0.1250 kg/ha) and in data set [3] (Rate 0.2500 kg/ha) was 9.0 throughout.

With `CNC.Cn1c(C(F)(F)F)cc(=O)n(-c2ccc3snc(CSCC(=O)O)c3c2)c1=O` [Example 299, Acetic acid, {{{5-[3,6-dihydro-3-methyl-2,6-dioxo-4-(trifluoromethyl)-1(2H)-pyrimidinyl)-1,2-benzisothiazol-3-yl}methyl}thio}-, dimethylamine salt], the “herbicidal effect rating, CYPIR” value amounted to 3.0 in the data set with Cyperus iria (Rate 0.0320 kg/ha), 7.0 with Cyperus iria (Rate 0.0620 kg/ha), 9.0 in the data set with Cyperus iria (Rate 0.1250 kg/ha) and 9.0 with Cyperus iria (Rate 0.2500 kg/ha). For the same molecule, the “herbicidal effect rating, ECHORC” value in data set [1] (setting [4]) came out at 0.0; in data set [1] (setting [5]), 0.0; in data set [1] (setting [6]) it was 2.0; in data set [1] (setting [7]) it was 5.0. In addition, the “herbicidal effect rating ORYSAT” value in data set [2] (Rate 0.0320 kg/ha) was determined as 0.0; in data set [2] (Rate 0.0620 kg/ha), 0.0; in data set [2] (Rate 0.1250 kg/ha), 3.0; in data set [2] (Rate 0.2500 kg/ha) it was 5.0. Besides, the “herbicidal effect rating, SAGPY” value with Sagittaria pygmaea, L. (Rate 0.0320 kg/ha) amounted to 0.0; with Sagittaria pygmaea, L. (Rate 0.0620 kg/ha) it was 0.0; with Sagittaria pygmaea, L. (Rate 0.1250 kg/ha) it was 3.0; in the data set with Sagittaria pygmaea, L. (Rate 0.2500 kg/ha), 7.0. The “herbicidal effect rating, MOOVA” value is on record as 7.0 in data set [3] (Rate 0.0320 kg/ha), 9.0 in data set [3] (Rate 0.0620 kg/ha), 9.0 in data set [3] (Rate 0.1250 kg/ha) and 9.0 in data set [3] (Rate 0.2500 kg/ha).

As for `Cn1c(C(F)(F)F)cc(=O)n(-c2ccc3snc(COCC(=O)O)c3c2)c1=O` [Example 293, Acetic acid, {{5-[3,6-dihydro-3-methyl-2,6-dioxo-4-(trifluoromethyl)-1(2H)-pyrimidinyl]-1,2-benzisothiazol-3-yl}methoxy}-], the “CYPIR herbicidal effect rating” value in the data set with Cyperus iria (Rate 0.0320 kg/ha), in the data set with Cyperus iria (Rate 0.0620 kg/ha), with Cyperus iria (Rate 0.1250 kg/ha) and with Cyperus iria (Rate 0.2500 kg/ha) was 9.0 each time. Moreover, the “ECHORC herbicidal effect rating” value in data set [1] (setting [8]), in data set [1] (setting [9]), in data set [1] (setting [10]) and in data set [1] (setting [11]) was 0.0 throughout. Besides, the “ORYSAT herbicidal effect rating” value in data set [2] (Rate 0.0320 kg/ha), in data set [2] (Rate 0.0620 kg/ha), in data set [2] (Rate 0.1250 kg/ha) and in data set [2] (Rate 0.2500 kg/ha) was 0.0 throughout. Further, the “SAGPY herbicidal effect rating” value was determined as 0.0 in the data set on Sagittaria pygmaea, L. (Rate 0.0320 kg/ha); 0.0 with Sagittaria pygmaea, L. (Rate 0.0620 kg/ha); 0.0 with Sagittaria pygmaea, L. (Rate 0.1250 kg/ha); 6.0 in the data set with Sagittaria pygmaea, L. (Rate 0.2500 kg/ha). Moreover, the “MOOVA herbicidal effect rating” value in data set [3] (Rate 0.0320 kg/ha), in data set [3] (Rate 0.0620 kg/ha), in data set [3] (Rate 0.1250 kg/ha) and in data set [3] (Rate 0.2500 kg/ha) was 9.0 throughout.

`Cn1c(C(F)(F)F)cc(=O)n(-c2ccc3snc(C(=O)Oc4ccc(F)cc4)c3c2)c1=O` [Example 320, 1,2-Benzisothiazole-3-carboxylic acid, 5-[3,6-dihydro-3-methyl-2,6-dioxo-4-(trifluoromethyl)-1(2H)-pyrimidinyl]-, p-fluorophenyl ester]: the “herbicidal effect rating, CYPIR” value in the data set on Cyperus iria (Rate 0.0320 kg/ha) is 0.0; with Cyperus iria (Rate 0.0620 kg/ha), 2.0; in the data set with Cyperus iria (Rate 0.1250 kg/ha), 5.5; with Cyperus iria (Rate 0.2500 kg/ha), 8.0. The “herbicidal effect rating, ECHORC” value in data set [1] (setting [4]) is recorded as 0.0; in data set [1] (setting [5]), 0.0; in data set [1] (setting [6]), 0.0; in data set [1] (setting [7]) it was 2.5. In addition, the “herbicidal effect rating ORYSAT” value was determined as 1.5 in data set [2] (Rate 0.0320 kg/ha), 2.0 in data set [2] (Rate 0.0620 kg/ha), 2.0 in data set [2] (Rate 0.1250 kg/ha) and 2.5 in data set [2] (Rate 0.2500 kg/ha). In addition, the “herbicidal effect rating, SAGPY” value in the data set on Sagittaria pygmaea, L. (Rate 0.0320 kg/ha) is on record as 1.0; with Sagittaria pygmaea, L. (Rate 0.0620 kg/ha), 2.5; with Sagittaria pygmaea, L. (Rate 0.1250 kg/ha), 2.5; in the data set with Sagittaria pygmaea, L. (Rate 0.2500 kg/ha), 5.0. The “herbicidal effect rating, MOOVA” value amounted to 0.0 in data set [3] (Rate 0.0320 kg/ha), 0.0 in data set [3] (Rate 0.0620 kg/ha), 3.0 in data set [3] (Rate 0.1250 kg/ha) and 9.0 in data set [3] (Rate 0.2500 kg/ha).

With `Cn1c(C(F)(F)F)cc(=O)n(-c2ccc3snc(COCC(=O)NS(C)(=O)=O)c3c2)c1=O` [Example 294, Acetamide, 2-{{5-[3,6-dihydro-3-methyl-2,6-dioxo-4-(trifluoromethyl)-1(2H)-pyrimidinyl]-1,2-benzisothiazol-3-yl}methoxy}-N-(methylsulfonyl)-], the “CYPIR herbicidal effect rating” value stood at 0.0 in the data set with Cyperus iria (Rate 0.0320 kg/ha), 0.0 in the data set on Cyperus iria (Rate 0.0620 kg/ha), 3.0 with Cyperus iria (Rate 0.1250 kg/ha) and 9.0 in the data set on Cyperus iria (Rate 0.2500 kg/ha). Besides, the “ECHORC herbicidal effect rating” value in data set [1] (setting [8]), in data set [1] (setting [9]), in data set [1] (setting [10]) and in data set [1] (setting [11]) was 0.0 throughout. Further, the “ORYSAT herbicidal effect rating” value in data set [2] (Rate 0.0320 kg/ha), in data set [2] (Rate 0.0620 kg/ha), in data set [2] (Rate 0.1250 kg/ha) and in data set [2] (Rate 0.2500 kg/ha) was 0.0 throughout. Moreover, the “SAGPY herbicidal effect rating” value was 0.0 in the data set with Sagittaria pygmaea, L. (Rate 0.0320 kg/ha); 0.0 in the data set on Sagittaria pygmaea, L. (Rate 0.0620 kg/ha); 0.0 in the data set with Sagittaria pygmaea, L. (Rate 0.1250 kg/ha); 0.0 in the data set with Sagittaria pygmaea, L. (Rate 0.2500 kg/ha). Also, the “MOOVA herbicidal effect rating” value in data set [3] (Rate 0.0320 kg/ha), in data set [3] (Rate 0.0620 kg/ha), in data set [3] (Rate 0.1250 kg/ha) and in data set [3] (Rate 0.2500 kg/ha) was 9.0 throughout.

`Cc1ccc(OCC(=O)OC2CCCC2)c(-c2nsc3ccc(-n4c(=O)cc(C(F)(F)F)n(C)c4=O)cc23)c1` [Example 84, Cyclopentyl {{2-{5-[3,6-dihydro-3-methyl-2,6-dioxo-4-(trifluoromethyl)-1(2H)-pyrimidinyl]-1,2-benzisothiazol-3-yl}-p-tolyl}oxy}acetate]: the “herbicidal effect rating, ECHORC” value in data set [1] (0.0313 kg/ha, preemergence) stood at 9.0; in data set [1] (0.0625 kg/ha, preemergence), 9.0; in data set [1] (0.1250 kg/ha, preemergence), 9.0; in data set [1] (0.2500 kg/ha, preemergence) it was 9.0. Besides, the “herbicidal effect rating, ORYSAT (rice tolerance)” value in data set [2] (0.0313 kg/ha) came to 3.0; in data set [2] (0.0625 kg/ha), 3.0; in data set [2] (0.1250 kg/ha) it was 4.0; in data set [2] (0.2500 kg/ha), 7.0.

The values are drawn from patent publication EP0908457B1, “3-(1,2-benzisothiazol- and isoxazol-5-Y1)-2,4(1H,3H)-pyrimidinedione or thione and 3-(1,2-benzisothiazol- and isoxazol-5-y1)-4(3H)-pyrimidinone or thione herbicidal agents” (BASF AKTIENGESELLSCHAFT, priority 1997, dated 1999).
